Where “and” joins values, the source holds several entries; their conditions need not be identical. Identical values can stand only once.
How the values were obtained:
Assay in all cases: radiometric filter-binding kinase assay, Kinaseprofiler
[1] = tested on: DDR2 (human), Q16832 [S642A]; settings: compound 1.0 µM; ATP 200 µM
[2] = tested on: BLK (human), P51451 [M278V]; settings: compound 1.0 µM; ATP 45 µM
EPHB1 (human) = EPHB1 (human) (UniProt P54762); settings: compound 1.0 µM; ATP 200 µM
FES (human) = FES (human) (UniProt P07332); settings: compound 1.0 µM; ATP 45 µM
TBK1 (human) = TBK1 (human) (UniProt Q9UHD2); settings: compound 1.0 µM; ATP 155 µM
Sequence of TBK1 (human) (Q9UHD2 whole entry, looked up): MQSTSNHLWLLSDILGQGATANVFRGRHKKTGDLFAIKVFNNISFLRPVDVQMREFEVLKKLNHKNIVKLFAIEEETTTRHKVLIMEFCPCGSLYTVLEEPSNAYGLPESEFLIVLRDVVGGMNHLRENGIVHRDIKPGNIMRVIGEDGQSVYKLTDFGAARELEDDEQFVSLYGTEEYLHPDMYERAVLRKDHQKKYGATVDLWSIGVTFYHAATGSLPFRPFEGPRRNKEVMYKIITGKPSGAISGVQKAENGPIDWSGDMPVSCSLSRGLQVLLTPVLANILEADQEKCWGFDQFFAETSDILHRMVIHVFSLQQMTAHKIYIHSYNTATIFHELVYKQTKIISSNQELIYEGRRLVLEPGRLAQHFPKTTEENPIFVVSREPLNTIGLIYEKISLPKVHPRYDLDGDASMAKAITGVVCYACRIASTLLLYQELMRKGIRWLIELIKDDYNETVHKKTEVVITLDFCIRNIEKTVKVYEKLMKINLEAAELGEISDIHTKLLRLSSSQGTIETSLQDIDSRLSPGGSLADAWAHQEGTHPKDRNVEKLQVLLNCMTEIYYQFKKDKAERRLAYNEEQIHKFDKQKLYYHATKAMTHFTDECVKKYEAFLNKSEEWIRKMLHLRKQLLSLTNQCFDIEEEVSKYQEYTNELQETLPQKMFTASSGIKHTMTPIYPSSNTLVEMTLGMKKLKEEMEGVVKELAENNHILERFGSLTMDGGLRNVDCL

[3] = tested on: ABL1 (human), P00519 [T315I]; settings: compound 1.0 µM; ATP 10 µM
STK4 (human) = STK4 (human) (UniProt Q13043); settings: compound 1.0 µM; ATP 90 µM
Sequence of STK4 (human) (Q13043 whole entry, looked up): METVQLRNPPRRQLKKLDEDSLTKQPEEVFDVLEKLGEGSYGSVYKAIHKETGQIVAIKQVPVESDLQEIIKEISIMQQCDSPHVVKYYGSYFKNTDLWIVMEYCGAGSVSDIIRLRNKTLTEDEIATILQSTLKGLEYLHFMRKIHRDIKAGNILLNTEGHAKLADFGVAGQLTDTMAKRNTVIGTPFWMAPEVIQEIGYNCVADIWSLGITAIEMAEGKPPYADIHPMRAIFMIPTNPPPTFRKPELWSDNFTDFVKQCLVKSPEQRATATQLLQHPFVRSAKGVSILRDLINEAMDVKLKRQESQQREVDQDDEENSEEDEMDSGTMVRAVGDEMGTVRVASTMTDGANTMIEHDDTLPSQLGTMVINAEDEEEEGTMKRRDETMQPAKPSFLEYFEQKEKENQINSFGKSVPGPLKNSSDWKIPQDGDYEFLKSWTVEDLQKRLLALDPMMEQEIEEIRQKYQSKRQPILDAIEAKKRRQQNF

[4] = tested on: KIT (human), P10721 [D816V]; settings: compound 1.0 µM; ATP 200 µM
[5] = tested on: AKT3 (human), Q9Y243 [S472D]; settings: compound 1.0 µM; ATP 45 µM
PRKG1 (human) = PRKG1 (human) (UniProt Q13976); settings: compound 1.0 µM; ATP 90 µM
Sequence of PRKG1 (human) (Q13976 whole entry, looked up): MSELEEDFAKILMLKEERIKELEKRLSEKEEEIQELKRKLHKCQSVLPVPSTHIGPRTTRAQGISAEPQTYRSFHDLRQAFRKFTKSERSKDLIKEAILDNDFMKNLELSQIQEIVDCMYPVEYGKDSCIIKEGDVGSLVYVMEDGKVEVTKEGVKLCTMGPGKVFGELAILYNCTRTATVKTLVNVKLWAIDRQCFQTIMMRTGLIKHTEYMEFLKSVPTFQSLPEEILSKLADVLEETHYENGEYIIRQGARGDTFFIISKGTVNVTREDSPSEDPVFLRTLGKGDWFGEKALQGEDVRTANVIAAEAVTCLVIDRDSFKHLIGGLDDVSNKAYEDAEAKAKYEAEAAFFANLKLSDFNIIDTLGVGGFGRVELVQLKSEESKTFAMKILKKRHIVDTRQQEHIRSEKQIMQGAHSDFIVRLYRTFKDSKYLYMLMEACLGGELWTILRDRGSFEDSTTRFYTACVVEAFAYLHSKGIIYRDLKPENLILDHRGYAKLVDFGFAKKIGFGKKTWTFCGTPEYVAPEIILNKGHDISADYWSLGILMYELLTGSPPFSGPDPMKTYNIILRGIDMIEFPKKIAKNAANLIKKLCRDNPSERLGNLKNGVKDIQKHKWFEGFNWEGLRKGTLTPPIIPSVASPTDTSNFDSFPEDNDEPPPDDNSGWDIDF

PAK4 (human) = PAK4 (human) (UniProt O96013); settings: compound 1.0 µM; ATP 10 µM
Sequence of PAK4 (human) (O96013 whole entry, looked up): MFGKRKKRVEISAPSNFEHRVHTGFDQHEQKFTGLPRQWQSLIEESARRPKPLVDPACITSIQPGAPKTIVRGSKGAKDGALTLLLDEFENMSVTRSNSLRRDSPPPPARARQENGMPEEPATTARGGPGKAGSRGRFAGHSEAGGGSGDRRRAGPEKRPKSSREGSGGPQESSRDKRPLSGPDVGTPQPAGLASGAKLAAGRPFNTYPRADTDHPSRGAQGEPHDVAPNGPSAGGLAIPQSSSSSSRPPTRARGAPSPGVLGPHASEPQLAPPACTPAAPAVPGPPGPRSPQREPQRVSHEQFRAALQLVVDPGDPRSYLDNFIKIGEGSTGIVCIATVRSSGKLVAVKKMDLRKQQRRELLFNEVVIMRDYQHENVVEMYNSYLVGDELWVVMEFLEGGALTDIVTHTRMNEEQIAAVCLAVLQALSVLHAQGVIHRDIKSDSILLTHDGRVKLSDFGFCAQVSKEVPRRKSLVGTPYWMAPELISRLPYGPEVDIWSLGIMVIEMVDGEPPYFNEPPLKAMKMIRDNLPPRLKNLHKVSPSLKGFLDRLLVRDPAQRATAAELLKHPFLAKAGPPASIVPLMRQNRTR

MELK (human) = MELK (human) (UniProt Q14680); settings: compound 1.0 µM; ATP 45 µM
ALK (human) = ALK (human) (UniProt Q9UM73); settings: compound 1.0 µM; ATP 200 µM
[6] = tested on: MAPKAPK2 (human), P49137 [A399G]; settings: compound 1.0 µM; ATP 90 µM
MAP3K5 (human) = MAP3K5 (human) (UniProt Q99683); settings: compound 1.0 µM; ATP 200 µM
CHUK (human) = CHUK (human) (UniProt O15111); settings: compound 1.0 µM; ATP 10 µM
[7] = tested on: RAF1 (human), P04049 [Y340D/Y341D]; settings: compound 1.0 µM; ATP 45 µM
FGR (human) = FGR (human) (UniProt P09769); settings: compound 1.0 µM; ATP 45 µM
Sequence of FGR (human) (P09769 whole entry, looked up): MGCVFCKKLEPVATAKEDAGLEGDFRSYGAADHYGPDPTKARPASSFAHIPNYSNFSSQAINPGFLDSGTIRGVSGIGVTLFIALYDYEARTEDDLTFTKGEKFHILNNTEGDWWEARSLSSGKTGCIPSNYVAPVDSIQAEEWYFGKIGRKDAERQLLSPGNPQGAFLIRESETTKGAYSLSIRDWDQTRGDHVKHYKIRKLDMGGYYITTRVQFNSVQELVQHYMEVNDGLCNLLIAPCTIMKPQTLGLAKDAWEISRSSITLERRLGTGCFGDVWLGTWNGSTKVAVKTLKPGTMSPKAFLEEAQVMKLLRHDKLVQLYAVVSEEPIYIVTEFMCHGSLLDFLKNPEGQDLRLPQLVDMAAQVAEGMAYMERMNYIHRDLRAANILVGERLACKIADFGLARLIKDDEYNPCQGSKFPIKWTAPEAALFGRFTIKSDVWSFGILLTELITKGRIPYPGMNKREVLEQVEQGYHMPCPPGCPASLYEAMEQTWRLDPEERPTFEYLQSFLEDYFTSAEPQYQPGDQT

NTRK1 (human) = NTRK1 (human) (UniProt P04629); settings: compound 1.0 µM; ATP 120 µM
Sequence of NTRK1 (human) (P04629 whole entry, looked up): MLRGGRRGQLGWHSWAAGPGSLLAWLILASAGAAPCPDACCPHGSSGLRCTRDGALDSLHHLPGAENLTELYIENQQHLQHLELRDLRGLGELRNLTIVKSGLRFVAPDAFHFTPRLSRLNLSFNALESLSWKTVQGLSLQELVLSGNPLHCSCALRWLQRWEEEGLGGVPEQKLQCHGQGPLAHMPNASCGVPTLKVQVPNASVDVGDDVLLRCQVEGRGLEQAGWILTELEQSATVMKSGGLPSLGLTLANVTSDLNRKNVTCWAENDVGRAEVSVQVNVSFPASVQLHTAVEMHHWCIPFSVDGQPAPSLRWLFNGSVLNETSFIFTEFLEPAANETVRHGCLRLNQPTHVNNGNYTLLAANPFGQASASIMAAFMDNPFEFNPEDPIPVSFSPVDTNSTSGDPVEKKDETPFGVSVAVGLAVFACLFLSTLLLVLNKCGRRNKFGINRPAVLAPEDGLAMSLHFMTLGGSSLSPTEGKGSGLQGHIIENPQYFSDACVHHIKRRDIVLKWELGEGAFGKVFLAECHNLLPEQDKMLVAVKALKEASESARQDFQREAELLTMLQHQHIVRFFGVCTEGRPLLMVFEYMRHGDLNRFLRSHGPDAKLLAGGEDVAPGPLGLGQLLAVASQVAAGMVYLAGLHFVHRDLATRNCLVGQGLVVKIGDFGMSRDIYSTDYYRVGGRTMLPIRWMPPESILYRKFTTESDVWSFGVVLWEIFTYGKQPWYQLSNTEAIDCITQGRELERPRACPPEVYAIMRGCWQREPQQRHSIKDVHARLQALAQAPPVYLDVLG

SRC (human) = SRC (human) (UniProt P12931); settings: compound 1.0 µM; ATP 200 µM
ACVR1B (human) = ACVR1B (human) (UniProt P36896); settings: compound 1.0 µM; ATP 10 µM
EPHA5 (human) = EPHA5 (human) (UniProt P54756); settings: compound 1.0 µM; ATP 10 µM
[8] = tested on: MAPK14 (human), Q16539 [T106M]; settings: compound 1.0 µM; ATP 90 µM
BMX (human) = BMX (human) (UniProt P51813); settings: compound 1.0 µM; ATP 45 µM
PAK3 (human) = PAK3 (human) (UniProt O75914); settings: compound 1.0 µM; ATP 120 µM
Sequence of PAK3 (human) (O75914 whole entry, looked up): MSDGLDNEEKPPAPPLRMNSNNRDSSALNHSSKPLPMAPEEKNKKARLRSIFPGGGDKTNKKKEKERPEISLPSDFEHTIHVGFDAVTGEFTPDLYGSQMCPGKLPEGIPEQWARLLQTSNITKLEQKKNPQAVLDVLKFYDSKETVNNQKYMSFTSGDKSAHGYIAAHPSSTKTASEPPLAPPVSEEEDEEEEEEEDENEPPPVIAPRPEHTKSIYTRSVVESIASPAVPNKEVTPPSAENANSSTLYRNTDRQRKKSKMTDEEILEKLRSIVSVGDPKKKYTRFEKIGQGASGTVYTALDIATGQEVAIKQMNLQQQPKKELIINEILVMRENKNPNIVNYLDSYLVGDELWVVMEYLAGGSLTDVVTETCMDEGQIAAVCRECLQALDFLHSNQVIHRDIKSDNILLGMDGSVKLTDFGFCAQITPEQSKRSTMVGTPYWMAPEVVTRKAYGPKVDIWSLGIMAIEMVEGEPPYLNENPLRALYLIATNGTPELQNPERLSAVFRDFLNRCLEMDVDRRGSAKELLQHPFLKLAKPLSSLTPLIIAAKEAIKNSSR

RPS6KA3 KD1 KD2 (human) = RPS6KA3 KD1 KD2 (human) (UniProt P51812); settings: compound 1.0 µM; ATP 10 µM
RPS6KA5 KD1 KD2 (human) = RPS6KA5 KD1 KD2 (human) (UniProt O75582); settings: compound 1.0 µM; ATP 90 µM
EPHA7 (human) = EPHA7 (human) (UniProt Q15375); settings: compound 1.0 µM; ATP 90 µM
[9] = tested on: AKT2 (human), P31751 [S474D]; settings: compound 1.0 µM; ATP 200 µM
[10] = tested on: PAK2 (human), Q13177 [L150F, P225T, V383I; A339 del]; settings: compound 1.0 µM; ATP 90 µM
PDGFRB (human) = PDGFRB (human) (UniProt P09619); settings: compound 1.0 µM; ATP 200 µM
KDR (human) = KDR (human) (UniProt P35968); settings: compound 1.0 µM; ATP 90 µM
PIM2 (human) = PIM2 (human) (UniProt Q9P1W9); settings: compound 1.0 µM; ATP 15 µM
ROCK1 (human) = ROCK1 (human) (UniProt Q13464); settings: compound 1.0 µM; ATP 70 µM
[11] = tested on: SGK2 (human), Q9HBY8 [S416D]; settings: compound 1.0 µM; ATP 15 µM
Sequence of SGK2 (human), Q9HBY8 [S416D] (Q9HBY8 whole entry, looked up, stated change not applied): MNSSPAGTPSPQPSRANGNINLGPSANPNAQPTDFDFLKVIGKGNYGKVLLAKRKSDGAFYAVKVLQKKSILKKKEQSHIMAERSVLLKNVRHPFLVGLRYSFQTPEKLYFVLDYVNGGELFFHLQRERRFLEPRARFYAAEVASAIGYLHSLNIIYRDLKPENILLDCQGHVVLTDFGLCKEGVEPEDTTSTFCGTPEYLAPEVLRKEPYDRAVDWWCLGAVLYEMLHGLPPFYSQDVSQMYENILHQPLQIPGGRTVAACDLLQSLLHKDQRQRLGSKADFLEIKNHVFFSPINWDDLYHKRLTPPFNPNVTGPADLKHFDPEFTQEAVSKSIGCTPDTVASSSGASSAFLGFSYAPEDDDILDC

EPHA2 (human) = EPHA2 (human) (UniProt P29317); settings: compound 1.0 µM; ATP 155 µM
NEK7 (human) = NEK7 (human) (UniProt Q8TDX7); settings: compound 1.0 µM; ATP 45 µM
EPHB4 (human) = EPHB4 (human) (UniProt P54760); settings: compound 1.0 µM; ATP 10 µM

Work on `CN(C)S(=O)(=O)Nc1ccc2ccc3ncc(-c4cnn(C)c4)cc3c(=O)c2c1` yielded a residual activity [1] of 108%, a residual activity [2] of 83% and a residual activity (EPHB1 (human)) of 67%. The residual activity (FES (human)) was 113%, the residual activity (TBK1 (human)) was 93% and the residual activity [3] was 35%. The residual activity (STK4 (human)) was 80%, the residual activity [4] was 95% and the residual activity [5] was 96%. For the same molecule, the residual activity (PRKG1 (human)) was 6% and -14%, the residual activity (PAK4 (human)) was 94% and the residual activity (MELK (human)) was 38%. It also gave a residual activity (ALK (human)) of 0%, a residual activity [6] of 104% and a residual activity (MAP3K5 (human)) of 98%. The residual activity (CHUK (human)) was 98%, the residual activity [7] was 72% and the residual activity (FGR (human)) was 90%. For the same molecule, the residual activity (NTRK1 (human)) was 1%, the residual activity (SRC (human)) was 125% and the residual activity (ACVR1B (human)) was 100%. For the same molecule, the residual activity (EPHA5 (human)) was 102%, the residual activity [8] was 112% and the residual activity (BMX (human)) was 73%. The residual activity (PAK3 (human)) was 99%, the residual activity (RPS6KA3 KD1 KD2 (human)) was 76% and the residual activity (RPS6KA5 KD1 KD2 (human)) was 101%. The residual activity (EPHA7 (human)) was 101%, the residual activity [9] was 89% and the residual activity [10] was 100%. For the same molecule, the residual activity (PDGFRB (human)) was 77%, the residual activity (KDR (human)) was 10% and the residual activity (PIM2 (human)) was 98%. The residual activity (ROCK1 (human)) was 107%, the residual activity [11] was 114% and the residual activity (EPHA2 (human)) was 80%. The residual activity (NEK7 (human)) was 112% and the residual activity (EPHB4 (human)) was 103%.
